Source: US20250101356A1, “CONTAINER FOR PRODUCING TENSION-APPLIED THREE-DIMENSIONAL ARTIFICIAL SKIN AND PRODUCTION METHOD THEREOF” (RIKEN, priority 2022, published 2025)

Legend:
Type in all cases: cell-based, human
[1] = test system: hyaluronan synthase (HAS3) gene expression; assay: HAS3 gene expression in tension-applied three-dimensional artificial skin (real-time PCR); settings: artificial skin of the present invention; 10 μM ATRA solution on gauze on epidermis for 1 hour, then 5 hours culture (6 hours after addition)
Protocol: The artificial skin was such that, on the 6th day of culture, this was replaced with a medium for assay use (Dulbecco's Modified Eagle's Medium containing 1 μM hydrocortisone, 5 μg/mL insulin, and 10% fetal bovine serum). On the 8th day of culture, gauze that had been impregnated with 0.2% HPC solution or 10 μM ATRA solution was placed on the surface of the epidermis, and this was cultured for 1 hour in a 5% CO2 incubator at 37° C. After 1 hour, the gauze was removed, and this was further cultured for 5 hours in a 5% CO2 incubator at 37° C. Following culture of the artificial skin for 6 hours, the artificial skin was removed from the container in such fashion as to not cause the epidermal tissue to be delaminated therefrom, and a razor was used to cut this in half. After using […] from an RNeasy Plus Mini Kit (manufactured by Qiagen) to dissolve tissue by pulverizing with beads, phenol chloroform was used to remove protein therefrom, following which column purification was carried out as directed by the RNeasy Plus Mini Kit protocol to obtain total RNA.
SuperScript VILO Master Mix (manufactured by Invitrogen) was used as directed by the attached manual to carry out synthesis of cDNA from the purified total RNA. […]

[2] = test system: collagen 1A1 (COL1A1) gene expression; assay: Collagen 1A1 gene expression in tension-applied three-dimensional artificial skin (real-time PCR); settings: artificial skins prepared using means of the present invention; 10 ng/mL TGF-β in assay medium, 48 hours
Protocol: (§1) The artificial skin was such that, on the 6th day of culture, this was replaced with a medium for assay use (Dulbecco's Modified Eagle's Medium containing 1 μM hydrocortisone, 5 μg/mL insulin, and 10% fetal bovine serum). […] After using RNT solution from an RNeasy Plus Mini Kit (manufactured by Qiagen) to dissolve tissue by pulverizing with beads, phenol chloroform was used to remove protein therefrom, following which column purification was carried out as directed by the RNeasy Plus Mini Kit protocol to obtain total RNA.
(§2) SuperScript VILO Master Mix (manufactured by Invitrogen) was used as directed by the attached manual to carry out synthesis of cDNA from the purified total RNA. The synthesized cDNA was mixed with SYBR Premix Ex Taq (manufactured by Takara) and primer mix (a mixture of forward and reverse primers), 12.5 μL of reaction solution was prepared in each well of a 96-well plate for PCR use, and a QuantStudio 12K Flex (Applied Biosystems) was used to carry out real-time PCR. The real-time PCR reaction was such that 40 cycles comprising 95° C. for 30 seconds for initial denaturation, and 95° C. for 5 seconds and 60° C. for 31 seconds for the PCR reaction, were carried out. […]

[3] = test system: elastin (ELN) gene expression; assay: Elastin gene expression in tension-applied three-dimensional artificial skin (real-time PCR); settings: artificial skins prepared using means of the present invention; 10 ng/mL TGF-β in assay medium, 48 hours
Protocol: as §1, §2

CC1=C(/C=C/C(C)=C/C=C/C(C)=C/C(=O)O)C(C)(C)CCC1 [ATRA]
increase of HAS3 gene expression as compared with the situation when unstimulated [1]: ≥ 3 ×

TGF-β
increase of COL1A1 gene expression as compared with the situation when unstimulated [2]: ≥ 1.5 × | increase of elastin (ELN) gene expression as compared with the situation when unstimulated [3]: ≥ 3 ×
